Experimental findings from ChEMBL document CHEMBL1201862, “PubChem BioAssay data set” (2004) are described below.

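Method: 48-hour compound exposure of cells in 96-well plates, five concentrations, linear interpolation of endpoints. GI50 is the concentration that inhibits growth by half.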 The source made the active and inactive calls. Cut-off read from the data, not from the text of the source: active = GI50 up to about 1.1 µM and inactive = higher.

Test systems include UACC-257; MOLT-4; SK-MEL-2; M14; OVCAR-4; NCI-H226; RXF 393; OVCAR-8; UO-31; CCRF-CEM; SK-MEL-5; NCI-H460; SR; K562; SF-539; CAKI-1; HCT-15; SK-OV-3.
Common to all, as to assay: NCI anticancer screen, dose series, 48 h

`CCOc1ccccc1NC(=O)CC1SC(Nc2ccc([N+](=O)[O-])cc2)=NC1=O` (centres undefined): the GI50 was 17.3 µM (inactive) in the test with UACC-257; 19 µM (inactive) with MOLT-4; 18.3 µM (inactive) in the test with SK-MEL-2; 23.3 µM (inactive) with M14; 11.6 µM (inactive) with OVCAR-4; 20.4 µM (inactive) in the test on NCI-H226. Further, the GI50 in the test on RXF 393 was 18.1 µM (inactive); in the test on OVCAR-8, 21.5 µM (inactive); in the test on UO-31 it was 17.2 µM (inactive); in the test with CCRF-CEM, 17.2 µM (inactive); in the test on SK-MEL-5, 16 µM (inactive); with NCI-H460, 21.3 µM (inactive).
For `CC(=O)c1ccc(NC(=O)/C(CC(=O)c2sc(-c3cccnc3)nc2C)=N/NC(N)=O)cc1`, the GI50 in the test on SR is 33.1 µM (inactive); in the test on UACC-257, > 10 µM (inactive); in the test with MOLT-4, 19.3 µM (inactive); in the test on SK-MEL-2, > 100 µM (inactive); in the test on M14 it was > 100 µM (inactive); with OVCAR-4 it was > 100 µM (inactive). The GI50 is 25.9 µM (inactive) in the test with NCI-H226; > 100 µM (inactive) in the test on K562; 56.5 µM (inactive) with OVCAR-8; > 10 µM (inactive) with SF-539; 50.4 µM (inactive) in the test on UO-31; 21.6 µM (inactive) in the test with CCRF-CEM. Besides, the GI50 is 23.2 µM (inactive) with CAKI-1; > 100 µM (inactive) in the test with SK-MEL-5; 42.3 µM in the test with HCT-15; 27.1 µM (inactive) in the test with NCI-H460; > 100 µM (inactive) in the test with SK-OV-3.
Turning to `CCOc1ccccc1NC(=O)C1=C(C)NC(C)=C(C(=O)Nc2ccccc2OCC)C1c1ccc2c(c1)OCO2`, the GI50 is 22 µM (inactive) in the test with UACC-257; 12.1 µM (inactive) with MOLT-4; 18.7 µM (inactive) in the test on SK-MEL-2; 18.8 µM (inactive) in the test with M14; 20.8 µM (inactive) with OVCAR-4; 22 µM (inactive) in the test with NCI-H226. Further, the GI50 is 16.8 µM (inactive) in the test with RXF 393; 6.01 µM (inactive) in the test with K562; 47.3 µM (inactive) in the test on OVCAR-8; 25.5 µM (inactive) in the test on SF-539; 21.8 µM (inactive) with UO-31; 24.2 µM (inactive) in the test with CCRF-CEM. For the same compound, the GI50 in the test with CAKI-1 is 21.5 µM (inactive); in the test on SK-MEL-5, 11.1 µM (inactive); in the test on NCI-H460, 29.1 µM (inactive); with SK-OV-3, 18 µM (inactive).
As for `Cc1cccc(NC(=O)CC(=O)N2N=C(N(CCC#N)c3ccc(Cl)cc3)CC2c2ccccc2)c1` (centres undefined), the GI50 in the test with SR, with UACC-257, with MOLT-4, in the test with M14, in the test on OVCAR-4 and in the test on RXF 393 was > 100 µM (inactive) in each case. The GI50 in the test on K562, in the test on OVCAR-8, in the test on SF-539, with UO-31, in the test on CCRF-CEM and with CAKI-1 was > 100 µM (inactive) each time. Moreover, the GI50 with SK-MEL-5 and in the test with NCI-H460 was > 100 µM (inactive) throughout.
Regarding `COC(=O)N1C=CC2=C(C)C3Nc4ccccc4C3C(C)=C2C1` (centres undefined), the GI50 is 3.21 µM (inactive) in the test with UACC-257; 0.234 µM (active) in the test on MOLT-4; 1.47 µM (inactive) in the test with SK-MEL-2; 1.64 µM (inactive) in the test with M14; 1.34 µM (inactive) with OVCAR-4; 1.61 µM (inactive) in the test on NCI-H226. Besides, the GI50 with K562 is 2.09 µM (inactive); in the test with OVCAR-8, 0.682 µM (active); in the test with SF-539, 4.2 µM (inactive); with UO-31, 1.29 µM (inactive); with CCRF-CEM, 0.726 µM (active); in the test with CAKI-1, 5.35 µM (inactive). Further, the GI50 is 3.15 µM (inactive) in the test with SK-MEL-5, 1.12 µM in the test on HCT-15, 0.256 µM (active) with NCI-H460 and 1.86 µM (inactive) with SK-OV-3.
For the compound `CC1(C)C(=O)N(CCCCCCN2C(=O)C(C)(C)c3ccccc32)c2ccccc21`, the GI50 in the test on UACC-257 is 21.8 µM (inactive); with MOLT-4, 33.8 µM (inactive); in the test with SK-MEL-2 it was 48.6 µM (inactive); in the test with M14, 24.6 µM (inactive); with OVCAR-4, 23.4 µM (inactive); in the test with NCI-H226 it was 26.3 µM (inactive). Moreover, the GI50 in the test with K562 is 22.6 µM (inactive); in the test with OVCAR-8 it was 51.3 µM (inactive); in the test on SF-539, > 100 µM (inactive); in the test with UO-31 it was 31.2 µM (inactive); with CCRF-CEM it was 22.4 µM (inactive); in the test with CAKI-1, 62.4 µM (inactive). Besides, the GI50 in the test with SK-MEL-5 was 18.6 µM (inactive); in the test on HCT-15, 34.3 µM; in the test on NCI-H460, 54.3 µM (inactive); in the test with SK-OV-3, > 100 µM (inactive).
On to `CCOC(=O)C(=O)Nc1ccccc1C(C)C`, for which the GI50 with SR, in the test on UACC-257, with MOLT-4, with SK-MEL-2, in the test on M14 and with OVCAR-4 was > 100 µM (inactive) in each case. The GI50 with NCI-H226, in the test on K562, in the test on OVCAR-8, in the test with SF-539, in the test on UO-31 and with CCRF-CEM was > 100 µM (inactive) throughout. Further, the GI50 in the test on CAKI-1 was > 100 µM (inactive); in the test with SK-MEL-5, > 100 µM (inactive); in the test on HCT-15 it was over 100 µM; in the test on NCI-H460, > 100 µM (inactive); with SK-OV-3, > 100 µM (inactive).
In the case of `C1=C2/CC[C@H](Sc3ccccc3)[C@H]2C2(CCCCC/1)OCCO2`, the GI50 was 42.9 µM (inactive) in the test on SR; 20.2 µM (inactive) in the test with UACC-257; 16.9 µM (inactive) with SK-MEL-2; 27.9 µM (inactive) in the test with M14; 32.1 µM (inactive) in the test with K562; 26.7 µM (inactive) in the test on OVCAR-8. Besides, the GI50 is 40.4 µM (inactive) in the test on SF-539; 27 µM (inactive) in the test with UO-31; 24.5 µM (inactive) in the test with CCRF-CEM; 20.2 µM (inactive) with CAKI-1; 29.6 µM (inactive) in the test with SK-MEL-5; 28.2 µM in the test with HCT-15. The GI50 in the test with NCI-H460 was 63.4 µM (inactive); with SK-OV-3, 31 µM (inactive).
Turning to `Brc1cc2c(cc1C1SCCS1)OCO2`, the GI50 in the test on SR was > 100 µM (inactive); in the test with UACC-257, > 100 µM (inactive); in the test with MOLT-4 it was 80.4 µM (inactive); in the test on SK-MEL-2 it was > 100 µM (inactive); with M14, > 100 µM (inactive); in the test on OVCAR-4, > 100 µM (inactive). In addition, the GI50 was 59.2 µM (inactive) with K562; > 100 µM (inactive) with OVCAR-8; > 100 µM (inactive) in the test on SF-539; > 100 µM (inactive) in the test on UO-31; > 100 µM (inactive) in the test on CCRF-CEM; > 100 µM (inactive) in the test with CAKI-1. The GI50 with SK-MEL-5 was > 100 µM (inactive); in the test with HCT-15, over 100 µM; in the test with NCI-H460 it was > 100 µM (inactive); in the test on SK-OV-3, > 100 µM (inactive).
For `Cn1nc(-c2ccccc2)c(C(=O)/C=C/c2ccc(F)cc2)c(N2CCOCC2)c1=O`, the GI50 in the test on MOLT-4 was 14.2 µM (inactive); in the test on M14, 21.8 µM (inactive); with RXF 393, 13.6 µM (inactive); with K562, 16.8 µM (inactive); in the test with OVCAR-8 it was 22.5 µM (inactive); with SF-539, 17.3 µM (inactive). The GI50 is 12.9 µM (inactive) in the test on UO-31; 17.7 µM (inactive) in the test on CCRF-CEM; > 10 µM (inactive) with CAKI-1; 14.8 µM (inactive) with SK-MEL-5; 23.6 µM in the test with HCT-15; 24.4 µM (inactive) with NCI-H460. In addition, the GI50 in the test with SK-OV-3 is 32.7 µM (inactive).
For `CN1C(=O)CCC2[C@@H]3CC=C4C[C@@H](O)CC[C@]4(C)C3CC[C@@]21C` (some centres undefined), the GI50 is 20.3 µM (inactive) in the test on UACC-257; 18.5 µM (inactive) in the test on MOLT-4; > 100 µM (inactive) in the test with SK-MEL-2; 83.6 µM (inactive) with M14; 33.4 µM (inactive) with OVCAR-4; > 100 µM (inactive) in the test with NCI-H226. Further, the GI50 in the test with RXF 393 is 18.3 µM (inactive); in the test with K562 it was 21.3 µM (inactive); in the test on OVCAR-8, 64.9 µM (inactive); in the test with SF-539, 45.9 µM (inactive); in the test on UO-31 it was 33.8 µM (inactive); in the test on CCRF-CEM it was 36.1 µM (inactive). In addition, the GI50 was 50.2 µM (inactive) in the test on CAKI-1; 13.5 µM (inactive) in the test on SK-MEL-5; 71.6 µM in the test with HCT-15; 45 µM (inactive) with NCI-H460; > 100 µM (inactive) in the test on SK-OV-3.
For `O=C(N[C@H]1CC2(C=C(I)C(=O)C(I)=C2)OC1=O)OCc1ccccc1`, the GI50 with UACC-257 was 16.4 µM (inactive); in the test on M14 it was 17.2 µM (inactive); with OVCAR-4, 18.4 µM (inactive); in the test with NCI-H226, 22.7 µM (inactive); in the test with RXF 393, 15.2 µM (inactive); in the test with K562, 10.4 µM (inactive). Further, the GI50 in the test with OVCAR-8 is 17.3 µM (inactive); with SF-539, 17.7 µM (inactive); in the test on UO-31 it was 18.2 µM (inactive); in the test on CCRF-CEM, 2.61 µM (inactive); in the test on CAKI-1 it was 20.4 µM (inactive); with SK-MEL-5 it was 27 µM (inactive). Besides, the GI50 in the test on HCT-15 is 20.9 µM; with NCI-H460, 21.1 µM (inactive); in the test on SK-OV-3, 34.8 µM (inactive).
Turning to `Nc1ccc(C(=O)NN2C(=O)C(Cl)C2c2ccc(O)cc2)cc1` (centres undefined), the GI50 is 36.1 µM (inactive) in the test with UACC-257; 16.1 µM (inactive) in the test with MOLT-4; 15.3 µM (inactive) in the test on SK-MEL-2; 17.5 µM (inactive) in the test on M14; 19.1 µM (inactive) in the test on OVCAR-4; 25.4 µM (inactive) with NCI-H226. In addition, the GI50 was 21.3 µM (inactive) in the test on K562; 26.5 µM (inactive) in the test on OVCAR-8; 19.1 µM (inactive) in the test with SF-539; 23.3 µM (inactive) in the test with UO-31; 12.3 µM (inactive) in the test with CCRF-CEM; 25.1 µM (inactive) in the test on CAKI-1. For the same compound, the GI50 in the test on SK-MEL-5 was 17.2 µM (inactive); in the test on HCT-15 it was 21.4 µM; in the test with NCI-H460, 19.3 µM (inactive); with SK-OV-3, 22.8 µM (inactive).
